How the values were obtained:
[1] = molecular target: T1, Calcium/calmodulin-dependent protein kinase type IV (Homo sapiens) (UniProt Q16566); experiment: Inhibition of recombinant human full length GST-tagged CAMK4 expressed in Escherichia coli at 500 nM by Z-LYTE assay relative to control
T1 sequence (whole entry): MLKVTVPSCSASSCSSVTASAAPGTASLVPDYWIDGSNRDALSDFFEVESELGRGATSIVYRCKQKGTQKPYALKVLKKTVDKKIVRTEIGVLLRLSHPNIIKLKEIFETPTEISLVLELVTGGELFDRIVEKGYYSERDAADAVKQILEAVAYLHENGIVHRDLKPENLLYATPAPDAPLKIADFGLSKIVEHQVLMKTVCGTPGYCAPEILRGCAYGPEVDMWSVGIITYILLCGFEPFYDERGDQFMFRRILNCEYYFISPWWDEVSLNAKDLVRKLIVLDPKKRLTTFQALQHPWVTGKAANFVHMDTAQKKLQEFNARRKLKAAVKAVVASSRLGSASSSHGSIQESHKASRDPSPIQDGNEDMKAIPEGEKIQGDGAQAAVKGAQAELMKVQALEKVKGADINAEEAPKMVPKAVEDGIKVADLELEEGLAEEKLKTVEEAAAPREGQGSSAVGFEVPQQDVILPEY

[2] = molecular target: T2, Inhibitor of nuclear factor kappa-B kinase subunit epsilon (Homo sapiens) (UniProt Q14164); experiment: Inhibition of recombinant full-length human GST-tagged IKKepsilon expressed in baculovirus expression system at 500 nM by Z-LYTE assay relative to control
T2 sequence (whole entry): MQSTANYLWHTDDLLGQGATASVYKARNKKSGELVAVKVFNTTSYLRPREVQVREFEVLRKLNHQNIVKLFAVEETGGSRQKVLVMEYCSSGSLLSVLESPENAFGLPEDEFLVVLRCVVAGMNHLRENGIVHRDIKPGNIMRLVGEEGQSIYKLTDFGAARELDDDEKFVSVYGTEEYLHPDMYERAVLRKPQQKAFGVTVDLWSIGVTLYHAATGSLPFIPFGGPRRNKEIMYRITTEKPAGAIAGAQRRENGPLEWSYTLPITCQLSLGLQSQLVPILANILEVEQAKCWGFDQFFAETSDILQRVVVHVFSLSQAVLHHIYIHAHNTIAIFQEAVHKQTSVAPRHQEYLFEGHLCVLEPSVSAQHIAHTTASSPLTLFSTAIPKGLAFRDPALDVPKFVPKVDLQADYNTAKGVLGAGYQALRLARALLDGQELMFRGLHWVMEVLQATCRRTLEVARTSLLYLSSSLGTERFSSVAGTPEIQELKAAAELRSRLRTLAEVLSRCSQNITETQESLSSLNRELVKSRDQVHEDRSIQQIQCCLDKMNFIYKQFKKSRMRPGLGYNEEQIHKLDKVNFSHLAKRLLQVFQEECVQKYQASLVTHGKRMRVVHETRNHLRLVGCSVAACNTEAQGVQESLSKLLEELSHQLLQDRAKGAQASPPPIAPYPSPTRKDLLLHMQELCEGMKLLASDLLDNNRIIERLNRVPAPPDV

[3] = molecular target: Tyrosine-protein kinase JAK2 (Homo sapiens) (UniProt O60674); experiment: Inhibition of recombinant human GST-tagged JAK2 cytoplasmic domain (809 to […] residues) expressed in baculovirus expression system at 500 nM by Z-LYTE assay relative to control
Tyrosine-protein kinase JAK2 (Homo sapiens), sequence (O60674 whole entry, the tested form may be a part): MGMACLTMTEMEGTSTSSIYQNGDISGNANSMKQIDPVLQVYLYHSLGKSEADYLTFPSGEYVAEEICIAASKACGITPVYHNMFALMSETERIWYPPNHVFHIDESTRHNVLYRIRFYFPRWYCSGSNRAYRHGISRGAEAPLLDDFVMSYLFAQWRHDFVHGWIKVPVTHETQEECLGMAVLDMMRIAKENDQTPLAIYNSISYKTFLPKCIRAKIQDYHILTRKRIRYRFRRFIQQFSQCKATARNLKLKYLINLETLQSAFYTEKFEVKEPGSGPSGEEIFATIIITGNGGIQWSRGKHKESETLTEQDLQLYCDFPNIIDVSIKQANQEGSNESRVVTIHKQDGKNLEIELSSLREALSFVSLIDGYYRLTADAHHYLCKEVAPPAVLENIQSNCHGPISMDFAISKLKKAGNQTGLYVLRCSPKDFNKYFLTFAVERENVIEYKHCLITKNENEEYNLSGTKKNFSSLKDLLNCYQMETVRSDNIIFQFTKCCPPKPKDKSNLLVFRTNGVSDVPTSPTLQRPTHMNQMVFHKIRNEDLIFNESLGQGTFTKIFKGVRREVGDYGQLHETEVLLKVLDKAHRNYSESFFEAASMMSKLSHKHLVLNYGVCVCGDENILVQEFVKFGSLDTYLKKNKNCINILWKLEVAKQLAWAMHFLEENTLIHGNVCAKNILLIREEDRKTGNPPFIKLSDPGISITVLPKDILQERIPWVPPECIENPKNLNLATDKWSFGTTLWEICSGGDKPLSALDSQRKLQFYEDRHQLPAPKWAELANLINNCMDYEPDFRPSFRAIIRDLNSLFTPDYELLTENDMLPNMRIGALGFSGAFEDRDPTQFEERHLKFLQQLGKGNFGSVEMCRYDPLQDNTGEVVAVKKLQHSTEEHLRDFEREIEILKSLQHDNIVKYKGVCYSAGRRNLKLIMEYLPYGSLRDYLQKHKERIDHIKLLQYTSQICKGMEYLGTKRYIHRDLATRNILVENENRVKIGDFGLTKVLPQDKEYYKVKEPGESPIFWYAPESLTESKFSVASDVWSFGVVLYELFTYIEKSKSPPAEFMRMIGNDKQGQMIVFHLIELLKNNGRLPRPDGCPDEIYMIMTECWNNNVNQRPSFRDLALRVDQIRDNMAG

[4] = molecular target: T3, Mitogen-activated protein kinase 13 (Homo sapiens) (UniProt O15264); experiment: Inhibition of recombinant human full length His-tagged p38-delta expressed in baculovirus expression system at 500 nM by Z-LYTE assay relative to control
T3 sequence (whole entry): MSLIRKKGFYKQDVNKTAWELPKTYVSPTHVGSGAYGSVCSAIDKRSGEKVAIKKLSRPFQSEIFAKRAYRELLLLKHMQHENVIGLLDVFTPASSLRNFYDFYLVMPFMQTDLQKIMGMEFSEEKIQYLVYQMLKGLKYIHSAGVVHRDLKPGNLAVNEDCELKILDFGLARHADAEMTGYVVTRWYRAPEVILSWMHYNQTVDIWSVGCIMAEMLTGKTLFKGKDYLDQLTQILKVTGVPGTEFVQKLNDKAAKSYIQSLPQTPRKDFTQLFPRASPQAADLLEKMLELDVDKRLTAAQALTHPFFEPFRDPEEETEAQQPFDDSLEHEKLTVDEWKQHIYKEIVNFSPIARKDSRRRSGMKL

[5] = molecular target: Serine/threonine-protein kinase pim-1 (Homo sapiens) (UniProt P11309); experiment: Inhibition of recombinant full length human His-tagged PIM1 expressed in baculovirus expression system at 500 nM by Z-LYTE assay relative to control
Serine/threonine-protein kinase pim-1 (Homo sapiens), sequence (P11309 whole entry, looked up, the tested form may be a part): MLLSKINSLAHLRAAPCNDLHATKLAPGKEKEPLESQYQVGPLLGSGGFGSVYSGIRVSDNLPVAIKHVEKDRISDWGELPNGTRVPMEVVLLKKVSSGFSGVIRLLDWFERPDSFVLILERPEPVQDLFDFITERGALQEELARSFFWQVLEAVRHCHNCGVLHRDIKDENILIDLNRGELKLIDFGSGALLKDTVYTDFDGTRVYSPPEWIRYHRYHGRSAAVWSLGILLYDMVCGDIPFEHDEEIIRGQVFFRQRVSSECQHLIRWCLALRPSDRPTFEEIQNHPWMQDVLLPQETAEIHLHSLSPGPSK

[6] = molecular target: Proto-oncogene tyrosine-protein kinase receptor Ret (Homo sapiens) (UniProt P07949); experiment: Inhibition of recombinant human GST-tagged RET cytoplasmic domain expressed in baculovirus expression system at 500 nM by Z-LYTE assay relative to control
Proto-oncogene tyrosine-protein kinase receptor Ret (Homo sapiens), sequence (P07949 whole entry, the tested form may be a part): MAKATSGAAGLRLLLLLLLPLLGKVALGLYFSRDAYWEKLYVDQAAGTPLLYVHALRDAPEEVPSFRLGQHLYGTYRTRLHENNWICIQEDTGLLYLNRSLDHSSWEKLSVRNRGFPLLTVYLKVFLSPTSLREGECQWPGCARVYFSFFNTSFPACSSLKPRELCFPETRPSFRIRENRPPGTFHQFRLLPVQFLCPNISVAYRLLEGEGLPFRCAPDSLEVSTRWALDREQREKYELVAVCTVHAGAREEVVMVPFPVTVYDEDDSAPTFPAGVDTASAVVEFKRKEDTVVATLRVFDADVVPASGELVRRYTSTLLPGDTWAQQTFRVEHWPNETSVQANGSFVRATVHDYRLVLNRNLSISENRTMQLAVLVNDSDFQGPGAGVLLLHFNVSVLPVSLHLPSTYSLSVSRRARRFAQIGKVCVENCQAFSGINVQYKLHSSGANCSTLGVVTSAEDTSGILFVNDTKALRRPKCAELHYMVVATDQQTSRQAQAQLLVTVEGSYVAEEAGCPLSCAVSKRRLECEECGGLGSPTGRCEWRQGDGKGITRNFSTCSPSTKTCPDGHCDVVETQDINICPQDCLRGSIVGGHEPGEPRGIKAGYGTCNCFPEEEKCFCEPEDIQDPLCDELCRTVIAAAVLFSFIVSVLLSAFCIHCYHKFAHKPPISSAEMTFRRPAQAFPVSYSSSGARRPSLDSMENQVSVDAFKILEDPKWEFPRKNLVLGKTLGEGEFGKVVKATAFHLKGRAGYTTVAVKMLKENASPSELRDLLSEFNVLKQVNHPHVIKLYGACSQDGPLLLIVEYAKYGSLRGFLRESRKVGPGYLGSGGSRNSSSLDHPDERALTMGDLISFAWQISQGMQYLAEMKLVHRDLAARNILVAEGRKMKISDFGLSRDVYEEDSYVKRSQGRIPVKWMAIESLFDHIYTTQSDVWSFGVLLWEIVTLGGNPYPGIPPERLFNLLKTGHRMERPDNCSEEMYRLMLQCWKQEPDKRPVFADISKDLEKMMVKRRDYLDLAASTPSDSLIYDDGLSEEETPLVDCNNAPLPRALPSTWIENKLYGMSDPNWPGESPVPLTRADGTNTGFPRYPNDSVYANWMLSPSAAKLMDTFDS

[7] = molecular target: Rho-associated protein kinase 2 (Homo sapiens) (UniProt O75116); experiment: Inhibition of recombinant human N-terminal GST-tagged ROCK2 cytoplasmic domain (1 to 552 residues) expressed in baculovirus expression system at 500 nM by Z-LYTE assay relative to control
Rho-associated protein kinase 2 (Homo sapiens), sequence (O75116 whole entry, looked up, the tested form may be a part): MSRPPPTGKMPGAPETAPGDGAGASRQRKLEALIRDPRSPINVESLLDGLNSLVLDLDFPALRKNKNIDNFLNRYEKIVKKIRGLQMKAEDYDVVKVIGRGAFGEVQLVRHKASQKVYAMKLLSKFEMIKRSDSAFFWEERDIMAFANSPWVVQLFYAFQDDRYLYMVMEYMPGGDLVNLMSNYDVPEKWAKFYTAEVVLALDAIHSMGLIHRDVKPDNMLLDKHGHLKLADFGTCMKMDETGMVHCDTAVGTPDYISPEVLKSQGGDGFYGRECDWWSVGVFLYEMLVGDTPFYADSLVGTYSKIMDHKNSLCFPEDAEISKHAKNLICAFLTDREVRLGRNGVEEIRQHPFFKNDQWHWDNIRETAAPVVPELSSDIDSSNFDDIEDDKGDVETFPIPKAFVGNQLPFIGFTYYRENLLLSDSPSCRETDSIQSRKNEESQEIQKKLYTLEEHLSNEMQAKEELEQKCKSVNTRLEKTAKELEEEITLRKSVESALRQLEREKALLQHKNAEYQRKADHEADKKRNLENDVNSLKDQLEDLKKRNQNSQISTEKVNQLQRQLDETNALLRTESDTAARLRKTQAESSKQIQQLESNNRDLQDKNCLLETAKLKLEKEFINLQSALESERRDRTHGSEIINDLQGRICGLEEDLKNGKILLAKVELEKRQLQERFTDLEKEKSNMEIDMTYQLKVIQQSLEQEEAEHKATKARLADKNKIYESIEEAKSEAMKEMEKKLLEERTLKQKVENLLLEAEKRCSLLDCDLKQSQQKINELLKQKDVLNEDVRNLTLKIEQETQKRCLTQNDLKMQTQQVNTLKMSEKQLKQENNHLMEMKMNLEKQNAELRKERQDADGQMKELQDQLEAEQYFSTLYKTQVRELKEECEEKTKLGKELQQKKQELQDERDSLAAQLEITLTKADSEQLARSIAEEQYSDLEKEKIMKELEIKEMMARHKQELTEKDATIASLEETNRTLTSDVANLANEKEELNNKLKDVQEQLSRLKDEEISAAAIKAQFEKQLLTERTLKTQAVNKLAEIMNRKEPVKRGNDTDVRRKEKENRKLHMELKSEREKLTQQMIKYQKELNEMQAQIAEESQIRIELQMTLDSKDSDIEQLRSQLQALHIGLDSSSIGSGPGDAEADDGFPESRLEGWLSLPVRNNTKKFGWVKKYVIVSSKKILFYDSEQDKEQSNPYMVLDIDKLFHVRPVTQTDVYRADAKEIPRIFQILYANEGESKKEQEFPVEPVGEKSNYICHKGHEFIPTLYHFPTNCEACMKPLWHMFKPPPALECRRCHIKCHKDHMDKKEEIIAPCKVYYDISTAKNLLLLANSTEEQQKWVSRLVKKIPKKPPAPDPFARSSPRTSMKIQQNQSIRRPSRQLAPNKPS

[8] = molecular target: Proto-oncogene tyrosine-protein kinase Src (Homo sapiens) (UniProt P12931); experiment: Inhibition of human full length Src expressed in baculovirus expression system at 500 nM by Z-LYTE assay relative to control
Proto-oncogene tyrosine-protein kinase Src (Homo sapiens), sequence (P12931 2-536 limits assumed): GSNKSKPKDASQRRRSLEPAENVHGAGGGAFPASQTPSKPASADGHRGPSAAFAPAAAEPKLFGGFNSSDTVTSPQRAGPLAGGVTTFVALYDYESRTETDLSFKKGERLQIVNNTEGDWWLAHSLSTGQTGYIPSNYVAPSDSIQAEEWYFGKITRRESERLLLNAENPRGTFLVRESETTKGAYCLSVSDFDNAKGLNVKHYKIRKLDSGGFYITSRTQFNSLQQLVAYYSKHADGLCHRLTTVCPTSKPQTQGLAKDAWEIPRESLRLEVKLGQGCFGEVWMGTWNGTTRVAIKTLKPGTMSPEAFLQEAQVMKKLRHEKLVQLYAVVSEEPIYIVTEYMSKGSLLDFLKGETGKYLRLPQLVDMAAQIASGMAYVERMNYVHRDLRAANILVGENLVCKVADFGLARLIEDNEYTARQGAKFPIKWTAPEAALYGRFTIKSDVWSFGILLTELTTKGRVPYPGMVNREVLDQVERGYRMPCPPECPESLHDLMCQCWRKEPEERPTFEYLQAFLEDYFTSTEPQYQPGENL

Row | inhibition [1] [%] | inhibition [2] [%] | inhibition [3] [%] | inhibition [4] [%] | inhibition [5] [%] | inhibition [6] [%] | inhibition [7] [%] | inhibition [8] [%] | SMILES
1 | 6 | 3 | 6 | 0 | 7 | 41 | 6 | 74 | OCc1ccc(-c2cc3c(N[C@H](CO)c4ccccc4)ncnc3[nH]2)cc1
2 | 5 | -2 | 13 | 3 | 1 | 23 | 6 | 16 | CCC(=O)Nc1ccc(-c2c[nH]c3ncnc(N[C@H](C)c4ccccc4)c23)cc1
3 | 2 | 3 | 7 | 1 | 9 | 93 | 33 | 55 | CN(C)CCn1cc(-c2cccc(O)c2)c2c(N)ncnc21
4 | -9 | -1 | 1 | -2 | 11 | 12 | 2 | – | OC[C@@H](Nc1ncnc2sc(-c3ccc(O)cc3)cc12)c1ccccc1
